Publication PMC11217349, “Development of Nurr1 agonists from amodiaquine by scaffold hopping and fragment growing” (Communications Chemistry, 2024)
“And” between values parts separate entries of the source, which are not always exact repeats. Identical values can stand only once. “Also recorded” adds a separate entry of the source. Like-named read-outs stand apart in the source and are kept apart here.

Experiments:
Nurr1 LBD = target: T1, Nurr1 LBD (Homo sapiens, UniProt P43354); assay: Isothermal titration calorimetry (ITC); format: binding; conditions: 25 °C
T1 construct: Nurr1 LBD protein (5–30 µM, expressed as described previously[21]); made in house
Experimental: ITC experiments were conducted on an Affinity ITC instrument (TA Instruments, New Castle, DE) at 25 °C with a stirring rate of 75 rpm. Nurr1 LBD protein (5–30 µM, expressed as described previously[21]) in buffer (20 mM Tris pH 7.5, 100 mM NaCl, 5% glycerol) containing 1–4% DMSO was titrated with the test compounds (30–150 μM in the same buffer containing 1-4% DMSO) in 26 injections (1 × 1 µL, 25 × 3-4 μL) with an injection interval of 120-150 s. As control experiments, the test compounds were titrated to the buffer, and the buffer was titrated to the Nurr1 LBD protein under otherwise identical conditions. Results were analyzed using NanoAnalyze software (version 3.11.0, TA Instruments, New Castle, DE) with independent binding models.

[1] = target: T2, human Nurr1 (hinge region and ligand binding domain) (Homo sapiens, UniProt P43354); assay: Gal4-Nurr1 hybrid reporter gene assay; format: cell-based
T2 construct: expressed in transfected cells; host or cells: HEK293T

HEK293T cells = assay: WST-8 cytotoxicity assay, HEK293T; format: cell-based, human; conditions: for toxicity (WST-8): HEK293T cells, 24 h
Experimental: Each sample was prepared in four biologically independent repeats. After incubation for 24 h, the medium was refreshed and 10% water-soluble tetrazolinum salt (Cell Counting Kit-8, MedChemExpress) was added to assess metabolic activity. After 4 h, absorbance was measured at 450 nm using a Tecan Spark Cyto instrument (Tecan).

NOR-1 = target: T3, NOR-1 (Homo sapiens, UniProt Q92570); assay: Gal4-NOR-1 hybrid reporter gene assay; format: cell-based; conditions: HEK293T
T3 construct: chimeric receptors composed of the Gal4-DBD and the hinge region and LBD; expressed in transfected cells; host or cells: HEK293T
T3 sequence (Q92570 394-623 limits assumed): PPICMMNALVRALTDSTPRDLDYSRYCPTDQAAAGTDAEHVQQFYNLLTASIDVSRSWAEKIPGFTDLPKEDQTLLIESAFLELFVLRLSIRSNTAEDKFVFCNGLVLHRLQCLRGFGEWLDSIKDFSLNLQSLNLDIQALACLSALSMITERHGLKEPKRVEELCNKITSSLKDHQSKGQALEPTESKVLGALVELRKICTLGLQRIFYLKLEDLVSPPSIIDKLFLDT
Experimental: Nurr1 modulation was determined in a Gal4 hybrid reporter gene assay in HEK293T cells (German Collection of Microorganisms and Cell Culture GmbH, DSMZ) using pFR-Luc (Stratagene, La Jolla, CA, USA; reporter), pRL-SV40 (Promega, Madison, WI, USA; internal control) and pFA-CMV-hNurr1-LBD[14], coding for the hinge region and ligand binding domain of the canonical isoform of human Nurr1. […] After 24 h, the medium was changed to Opti-MEM without supplements, and cells were transiently transfected using Lipofectamine LTX reagent (Invitrogen, Carlsbad, CA, USA) according to the manufacturer’s protocol. Five hours after transfection, cells were incubated with the test compounds in Opti-MEM supplemented with penicillin (100 U/mL), streptomycin (100 μg/mL), and 0.1% DMSO for 16 h before luciferase activity was measured using the Dual-Glo Luciferase Assay System (Promega) according to the manufacturer’s protocol on a Tecan Spark luminometer (Tecan Deutschland GmbH, Crailsheim, Germany). Firefly luminescence was divided by Renilla luminescence and multiplied by 1000 resulting in relative light units (RLU) to normalize for transfection efficiency and cell growth. Fold activation was obtained by dividing the mean RLU of the test compound by the mean RLU of the untreated control. All samples were tested in at least three biologically independent experiments in duplicates. For dose-response curve fitting and calculation of EC50 values, the equation “[Agonist] vs. response -- Variable slope (four parameters)” was used in GraphPad Prism (version 7.00, GraphPad Software, La Jolla, CA, USA). Selectivity profiling was performed with identical procedures using pFA-CMV-Nur77-LBD[14], pFA-CMV-NOR-1-LBD[14], pFA-CMV-THRα-LBD[51], pFA-CMV-RARα-LBD[52], pFA-CMV-PPARα-LBD[53], pFA-CMV-PPARγ-LBD[53], pFA-CMV-PPARδ-LBD[53], pFA-CMV-LXRα-LBD[54], pFA-CMV-FXR-LBD[55] and pFA-CMV-hRXRα-LBD[56].

[2] = target: T4, Nurr1-RXR heterodimer (DR5) (Homo sapiens, UniProt P43354); assay: Full-length Nurr1 reporter gene assay (DR5); format: cell-based
T4 construct: The full-length human nuclear receptor Nurr1 (pcDNA3.1-hNurr1-NE; Addgene plasmid #102363); host or cells: HEK293T
Experimental: Activation of full-length human Nurr1 was studied in transiently transfected HEK293T cells using the reporter plasmids pFR-Luc-NBRE[14], pFR-Luc-POMC[14] or pFR-Luc-DR5[14] each containing one copy of the respective human Nurr1 response element NBRE Nl3, NurRE, or DR5. […] After 24 h, the medium was changed to Opti-MEM without supplements, and cells were transiently transfected using Lipofectamine LTX reagent (Invitrogen) according to the manufacturer’s protocol. Five hours after transfection, cells were incubated with the test compounds in Opti-MEM supplemented with penicillin (100 U/mL), streptomycin (100 μg/mL) and 0.1% DMSO for 16 h before luciferase activity was measured using the Dual-Glo Luciferase Assay System (Promega) according to the manufacturer’s protocol on a Tecan Spark luminometer (Tecan Deutschland GmbH). Firefly luminescence was divided by Renilla luminescence and multiplied by 1000 resulting in relative light units (RLU) to normalize for transfection efficiency and cell growth. Fold activation was obtained by dividing the mean RLU of the test compound by the mean RLU of the untreated control. All samples were tested in at least three biologically independent experiments in duplicates. For dose-response curve fitting and calculation of EC50 values, the equation “[Agonist] vs. response -- Variable slope (four parameters)” was used in GraphPad Prism (version 7.00, GraphPad Software).

T2 sequence (P43354 360-595 limits assumed): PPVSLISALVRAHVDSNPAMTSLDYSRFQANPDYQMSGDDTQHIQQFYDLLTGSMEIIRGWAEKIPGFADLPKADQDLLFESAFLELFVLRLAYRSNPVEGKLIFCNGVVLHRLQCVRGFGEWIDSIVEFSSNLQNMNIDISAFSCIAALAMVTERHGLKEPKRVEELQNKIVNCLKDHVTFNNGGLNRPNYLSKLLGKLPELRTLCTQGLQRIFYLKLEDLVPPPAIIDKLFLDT
T1 sequence (P43354 360-595 limits assumed): as above
T4 sequence (P43354 whole entry): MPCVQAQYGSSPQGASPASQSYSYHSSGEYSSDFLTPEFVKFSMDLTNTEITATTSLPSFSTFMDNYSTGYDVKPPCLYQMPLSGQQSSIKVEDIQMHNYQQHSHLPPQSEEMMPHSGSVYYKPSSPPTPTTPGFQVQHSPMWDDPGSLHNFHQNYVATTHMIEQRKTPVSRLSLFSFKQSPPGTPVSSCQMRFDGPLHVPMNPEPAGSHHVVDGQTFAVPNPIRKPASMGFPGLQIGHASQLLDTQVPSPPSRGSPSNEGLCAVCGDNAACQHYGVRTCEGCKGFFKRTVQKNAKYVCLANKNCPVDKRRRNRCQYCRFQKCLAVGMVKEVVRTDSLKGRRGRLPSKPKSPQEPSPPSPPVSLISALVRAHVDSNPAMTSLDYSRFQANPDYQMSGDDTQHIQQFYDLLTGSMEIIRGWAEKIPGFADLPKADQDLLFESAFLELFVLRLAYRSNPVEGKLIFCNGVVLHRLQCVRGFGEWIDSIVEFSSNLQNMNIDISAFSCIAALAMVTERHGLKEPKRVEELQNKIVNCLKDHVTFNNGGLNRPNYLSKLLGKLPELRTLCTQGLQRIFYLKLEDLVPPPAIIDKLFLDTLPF
T4 sequence (P19793 whole entry partner): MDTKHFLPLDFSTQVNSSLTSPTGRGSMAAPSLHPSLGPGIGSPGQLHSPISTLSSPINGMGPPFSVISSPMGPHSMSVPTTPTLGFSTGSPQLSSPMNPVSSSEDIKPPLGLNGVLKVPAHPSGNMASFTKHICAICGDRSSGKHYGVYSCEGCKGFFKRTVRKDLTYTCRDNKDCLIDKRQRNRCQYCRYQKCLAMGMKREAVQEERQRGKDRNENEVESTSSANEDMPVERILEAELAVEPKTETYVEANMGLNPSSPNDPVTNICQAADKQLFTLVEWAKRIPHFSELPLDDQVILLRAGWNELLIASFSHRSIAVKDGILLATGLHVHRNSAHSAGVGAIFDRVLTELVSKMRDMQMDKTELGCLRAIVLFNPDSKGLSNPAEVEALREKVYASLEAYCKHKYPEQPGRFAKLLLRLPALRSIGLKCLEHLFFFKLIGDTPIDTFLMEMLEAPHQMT

Kd (Nurr1 LBD) (Nurr1 LBD)	fold less active than 36 as Nurr1 modulator ([1]; no agonism at 10 µM vs EC50 of 36)	EC50(NOR-1) (NOR-1)	EC50(DR5) ([2]; Nurr1-RXR heterodimer, HEK293T, without bexarotene)	Kd (Nurr1 LBD) [nM]	EC50 ([1]; Gal4-Nurr1 hybrid reporter, HEK293T, mean ± SD, n ≥ 3, read-out: EC50(Nurr1)) [nM]	EC50 (NOR-1) [nM]	EC50 ([2]; EC50(DR5) [+0.1 µM BEX], Nurr1-RXR heterodimer, in presence of 0.1 µM bexarotene) [nM]	factor of potency enhancement by bexarotene (DR5) ([2]; EC50 with 0.1 µM BEX vs without)	EC50 ([2]; Nurr1-RXR heterodimer, HEK293T, without bexarotene, read-out: EC50(DR5)) [nM]	SMILES	highest non-toxic concentration ([1]; Gal4-Nurr1 hybrid reporter gene assay, HEK293T)	EC50(Nurr1) ([1]; Gal4-Nurr1 hybrid reporter, HEK293T, mean ± SD, n ≥ 3)	toxicity (WST-8) (HEK293T cells)	rel. absorbance (450 nm) (HEK293T cells; HEK293T, 10 µM, WST-8, vs DMSO ctrl)
no binding^b	at least 100 fold	no activation (10 µM)	no activation (10 µM)	–	–	–	–	–	–	Cc1nc2c(Cl)cccn2c1NC(=O)c1ccc(-c2ccccc2)[nH]1 [Compound 29, N-(8-Chloro-2-methylimidazo[1,2-a]pyridin-3-yl)-5-phenyl-1H-pyrrole-2-carboxamide]	inactive (10 µM^b)	inactive (10 µM^b); also recorded: no activation (10 µM)	inactive (10 µM)	–
–	–	–	–	170	90 ± 5	110 ± 30	32	> 5	165 ± 4	Cc1nc2c(Cl)cccn2c1NC(=O)c1ccc(-c2ccc(N(C)C)cc2)o1 [Compound 36, N-(8-Chloro-2-methylimidazo[1,2-a]pyridin-3-yl)-5-(4-(dimethylamino)phenyl)furan-2-carboxamide]	–	–	no toxic effect; also recorded: non-toxic; also recorded: inactive (10 µM)	85% and 95% and 80%
